A word on the clearance: it is a measure of how efficiently the substance is removed, as volume per time. A lower clearance goes with a low capacity for elimination. A word on the half-life: it is how long it takes for the measured level to halve.

Structures are written as SMILES. Where a name gives a salt, the structure may show the parent alone.

Results on one compound are retold here after patent US20260265240A1, “PREPARATION METHOD FOR SALT FORM AND CRYSTAL FORM OF 2,6-PIPERIDINEDIONE COMPOUND AND USE THEREOF” (ZHANGZHOU PIEN TZE HUANG PHARMACEUTICAL CO., LTD., priority 2023, published 2026).

Data set [1] is described as follows: Pharmacokinetic evaluation in mice. It counts as in vivo, C57BL/6 or C57 mice. To be noted: male, C57BL/6, mouse, plasma, intravenous injection 2 mg/kg, fasted, read-out: Apparent Volume of Distribution. From the text:
C57BL/6 or C57 male mice were selected as the test animals for this study. The LC/MS/MS method was employed to quantitatively determine the plasma drug concentrations at various time points after intravenous injection or intragastric administration of the test compound, aiming to evaluate the pharmacokinetic characteristics of the compound of the present disclosure in mice.
C57BL/6 or C57 mice (male, 20 to 30 g, 7 to 10 weeks old, Beijing Vital River).
A clear solution of the test compound was injected intravenously into the tail vein of C57BL/6 mice (fasted overnight) (vehicle: 10% DMSO/10% solutol/80% H2O), or administered intragastrically to C57 mice (fed). […] The mixture was thoroughly vortexed and mixed, and centrifuged at 6000 g for 3 minutes at 2 to 8° C. […] The mixture was thoroughly vortexed and mixed, and centrifuged at 6000 g for 3 minutes at 2 to 8° C. Plasma drug concentrations were determined by the LC-MS/MS method, and relevant pharmacokinetic parameters were calculated using Phoenix WinNonlin 8.2.0 pharmacokinetic software with non-compartmental model linear-log trapezoidal method.

A short description of data set [2]: Pharmacokinetic evaluation in beagle dogs. It counts as in vivo. The conditions noted are these: male, dog, plasma, intravenous injection 0.5 mg/kg, fed. The protocol: Male beagle dogs were selected as the experimental animals in this study.
Beagle dogs (male, 7 to 10 kg, Beijing Mars Biotechnology Co., Ltd.).
A clear solution of the test compound was slowly injected intravenously into beagle dogs (fed) via the peripheral vein (vehicle: […]/10% Solutol/85% H2O), or administered intragastrically to beagle dogs (fed). For intravenous administration, 0.5 mL of blood was collected from the peripheral vein at 0.083, 0.25, 0.5, 1, 2, 4, 6, 8, and 24 h after administration, placed in EDTA-2K anticoagulant tubes, and centrifuged at 3200 g for 10 minutes at 2 to 8° C. to separate the supernatant. For intragastric administration, 0.5 mL of blood was collected from the peripheral vein at 0.083, 0.25, 0.5, 1, 2, 4, 6, 8, and 24 h after administration, placed in EDTA-2K anticoagulant tubes, and centrifuged at 3200 g for 10 minutes at 2 to 8° C. to separate the supernatant. Plasma drug concentrations were determined by the LC-MS/MS method, and relevant pharmacokinetic parameters were calculated using Phoenix WinNonlin 6.3 pharmacokinetic software with non-compartmental model linear-log trapezoidal method.

`O=C1CCC(c2noc3ccc4c(NC(=O)CN5CCN(C[C@H]6CC[C@H](n7cc(NC(=O)c8coc(-c9ccnc(NCC%10CC%10)c9)n8)c(C(F)F)n7)CC6)CC5)cccc4c23)C(=O)N1` (stereo partly drawn) [Hydrochloride of Compound of Formula (I)]: the Vd in data set [1] turned out to be 1.6 L/kg. In data set [2], the clearance came to 21.3 mL/min/kg. Further, the half-life in data set [2] (read-out: Elimination Half-Life (converted)) was 5.03 h.
